Source: patent US5527777A, “Peptide compounds, in particular LHRH-antagonists” (Schering Aktiengesellschaft, priority 1991, dated 1996)

Key:
[1] = test system: serum testosterone concentration; test: testosterone-reducing potential in intact adult male rats (serum testosterone, radioimmunological); format: in vivo; settings: subcutaneous, one time, 0.25 mg/kg of body weight, after 24 hours
Description: The peptide compounds are to be used in the treatment of benign enlargements of the prostate and carcinomas of the prostate. Therefore, the testosterone-reducing potential is tested. For this purpose, generally clearly higher dosages of one and the same antagonists are required than for the induction of an inhibition of ovulation. In the test process used here, intact adult male rats are subcutaneously treated one time with the substance to be tested. The effect on the serum testosterone concentration after 24 hours is determined radioimmunologically (kit of the Biermann company).

release of histamine = test: in vivo observation of edematous changes on face/extremities as sign of histamine release; design: species or system rats; settings: 0.1 to 5 mg/kg of body weight subcutaneously
Excerpt: In addition to the reduction of the testosterone value, the release of histamine is of importance. […] This in vivo test is ascribed considerably more relevance than the Mastzell test, used in many cases.

Mastzell = Mastzell test (release of histamine); format: cell-based; settings: ED50 still not achieved at highest stated concentration

For “Ac--D--Nal--D--Cpa--D--Pal--Ser--Tyr--D--Cit--Leu--Ahx(Mor)--Pro--D--Ala--NH2 [Example 13]”, the “inhibition of serum testosterone concentration in comparison to the control” value [1] was 26%, the “edematous changes on the face and/or on the extremities (typical of histamine release)” value (release of histamine) was “occur at none of the tested dosages” and the “ED50 of the release of histamine” value (Mastzell) was greater than 10 µg/mL.
